In PMC5920042, “KH176 Safeguards Mitochondrial Diseased Cells from Redox Stress-Induced Cell Death by Interacting with the Thioredoxin System/Peroxiredoxin Enzyme Machinery” (Scientific Reports, 2018):

Key:
P4 cell line = assay: Cellular ROS assay (DCFH-DA); assay type: cell-based, human; conditions: Homo sapiens; P4 cells, 24 h compound treatment
Experimental: The cells were then treated for 72 h (or shorter as indicated) with culture medium containing semi-logarithmic dilutions of the test compound. Alternatively, 3 × 10^3 cells/well were seeded when cells were treated for 24 h only. At the end of the incubation period, cells were loaded with 40 µM DCFH-DA (#D6883, Sigma-Aldrich). in M199 without phenol red for 30 min. The excess of the dye was washed with ice-cold M199 without phenol red and the cells were lysed with 100 µl/well of ice-cold 0.2% Triton X-100 in M199 without phenol red after 10 min incubation in ice. Cellular debris was spun down by centrifugation at 2600 g, 5 min, +4 °C and 90 µl/well of cell lysate were transferred to a black 96-wells plate and DCF fluorescence was measured on a scanning microplate reader (BMG FLUOstar Omega; Ex. 480 nm, Em. 520 nm).

human Prdx2 = biological target: T1, human Prdx2 (Homo sapiens, UniProt P32119); assay: Surface Plasmon Resonance binding; conditions: immobilized Prdx2, SPR, 0.31-5.0 µM
T1 construct: purchased Novus Biological NBC1-25855
T1 sequence (P32119 1-198): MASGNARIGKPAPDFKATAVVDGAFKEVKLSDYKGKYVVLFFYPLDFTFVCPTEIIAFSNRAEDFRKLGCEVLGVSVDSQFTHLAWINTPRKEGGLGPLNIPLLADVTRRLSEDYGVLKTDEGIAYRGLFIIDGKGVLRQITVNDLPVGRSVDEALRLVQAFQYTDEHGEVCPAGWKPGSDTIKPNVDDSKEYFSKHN
Experimental: Prior to protein immobilization all proteins were dialyzed against HBS-E (10 mM Hepes, 150 mM NaCl, 3 mM EDTA) buffer that was previously filtered through a 0.45 µM membrane using dialyze slide according to the manufacturer instruction. Human recombinant proteins peroxiredoxin 2 (Novus Biological NBC1-25855) and CCDC101 (Abcam Ab124547) were immobilized on CM5 (carboxymethylated dextran covalently attached to a gold surface) using the amine coupling method according to manufacturer’s recommendation (Biacore, GE Healthcare). Briefly the CM5 surface was activated with the mixture of EDC/NHS. Recombinant proteins at dilution 1 µg/ml in a corresponding buffer i.e. Peroxiredoxin 2 and CCDC101 in sodium acetate buffer 100 mM (pH 4.9). The control channel was activated with EDC/NHS. All channels were thereafter saturated with 0.1 M ethanolamine solution. KH176 andKH176m were solubilized in HBSS at stock solution 1 mM. They were thereafter further diluted in HBSS to final concentrations 0.31e-6M, 0.62e-6M, 1.25e-6M, 2.5e-6M and 5.0e-6M and injected over the flow cells at a flow rate equal to […] for 2 min, followed by a dissociation phase of 4 min. The sensor chip surface was regenerated with 1 mM HCl. The specific binding profiles were obtained after subtracting the response signal from the control empty channel and from blank-buffer injection. The specific binding was calculated using Biaeval 3 software (Biacore, GE Healthcare) with the postulate of 1:1 ligand/analyte interaction. Based on the Chi^2 value in regard to the Rmax (less than 10%) and the difference interval ±2.5 RU theoretic fitting compared to experimental results, best fitting algorithm between Langmuir or drifting base line was applied.

[1] = Single dose pharmacokinetics and bioavailability study; assay type: in vivo, male Sprague Dawley rats; conditions: male, Sprague Dawley, rat, plasma
Experimental: (§1) Pharmacokinetics and toxicokinetics measurements were performed by the commercial Contract Research Organizations Sai Life Sciences and WuXi AppTec, respectively, according to their standard protocols and in accordance with relevant guidelines and regulations. C57 BL/6 mice, Sprague Dawley rats, and Beagle dogs were studied.

[2] = 28-day repeat oral dose toxicity study, toxicokinetics; assay type: in vivo, Beagle dogs; conditions: Beagle, dog, plasma, po; for AUC(0-t): read-out: AUC0–24 h; for Cmax: read-out: Cmax
Experimental: as §1

[3] = female, 10 mg/kg, KH176 10 mg/kg/dose BID oral, F, Day 1, plasma
[4] = female, 10 mg/kg, KH176 10 mg/kg/dose BID oral, F, Day 28, plasma
[5] = female, 25 mg/kg, KH176 25 mg/kg/dose BID oral, F, Day 1, plasma
[6] = female, 25 mg/kg, KH176 25 mg/kg/dose BID oral, F, Day 28, plasma
[7] = female, 62.5 mg/kg, KH176 62.5 mg/kg/dose BID oral, F, Day 1, plasma
[8] = female, 62.5 mg/kg, KH176 62.5 mg/kg/dose BID oral, F, Day 28, plasma
[9] = male, 10 mg/kg, KH176 10 mg/kg/dose BID oral, M, Day 1, plasma
[10] = male, 10 mg/kg, KH176 10 mg/kg/dose BID oral, M, Day 28, plasma
[11] = male, 25 mg/kg, KH176 25 mg/kg/dose BID oral, M, Day 1, plasma
[12] = male, 25 mg/kg, KH176 25 mg/kg/dose BID oral, M, Day 28, plasma
[13] = male, 62.5 mg/kg, KH176 62.5 mg/kg/dose BID oral, M, Day 1, plasma
[14] = male, 62.5 mg/kg, KH176 62.5 mg/kg/dose BID oral, M, Day 28, plasma

Which IC50 (P4 cell line) does the source give for `Cc1c(C)c2c(c(C)c1O)CC[C@@](C)(C(=O)N[C@@H]1CCCNC1)O2.Cl` [KH176, (S)-6-hydroxy-2,5,7,8-tetramethyl-N-((R)-piperidin-3-yl)chroman-2-carboxamide hydrochloride] here?
The IC50 was 22.5 µM.

And the “Binding to Prdx2” value (human Prdx2)?
The value was “not”.

What about the AUC(0-inf) ([1]; iv, KH176 2 mg/kg i.v.) of the same compound?
Its AUC(0-inf) is 518 ng·h/mL.

What about the AUC(0-t) ([1]; iv, KH176 2 mg/kg i.v.) of the same compound?
The AUC(0-t) was 510 ng·h/mL.

What about the clearance ([1]; iv, KH176 2 mg/kg i.v.) of the same compound?
The clearance was 64.6 mL/min/kg.

What about the half-life ([1]; iv, KH176 2 mg/kg i.v.) of the same compound?
Its half-life is 2.6 h.

What about the C0 ([1]; iv, KH176 2 mg/kg i.v., back extrapolated) of the same compound?
The C0 was 344 ng/mL.

And the Vd ([1]; iv, KH176 2 mg/kg i.v., read-out: Vss)?
Its Vd is 7 L/kg.

And the bioavailability ([1]; oral, 10 mg/kg p.o. vs 2 mg/kg i.v., from AUClast, read-out: F (oral bioavailability))?
Its bioavailability is 74%.

And the AUC(0-inf) ([1]; po, KH176 10 mg/kg p.o.)?
The AUC(0-inf) was 1930 ng·h/mL.

And the AUC(0-t) ([1]; po, KH176 10 mg/kg p.o.)?
Its AUC(0-t) is 1870 ng·h/mL.

And the Cmax ([1]; po, KH176 10 mg/kg p.o.)?
Its Cmax is 594 ng/mL.

And the Tmax ([1]; po, KH176 10 mg/kg p.o., read-out: Tmax)?
Its Tmax is 0.67 h.

And the half-life [2, 3]?
The half-life was 1.4 h.

What about the AUC(0-t) [2, 3] of the same compound?
The AUC(0-t) was 8840 ng·h/mL.

What about the Cmax [2, 3] of the same compound?
The Cmax was 1150 ng/mL.

What about the half-life [2, 4] of the same compound?
Its half-life is 2 h.

What about the AUC(0-t) [2, 4] of the same compound?
The AUC(0-t) was 14600 ng·h/mL.

What about the Cmax [2, 4] of the same compound?
Its Cmax is 1540 ng/mL.

And the half-life [2, 5]?
The half-life was 1.8 h.

What about the AUC(0-t) [2, 5] of the same compound?
Its AUC(0-t) is 41900 ng·h/mL.

And the Cmax [2, 5]?
Its Cmax is 4150 ng/mL.

What about the half-life [2, 6] of the same compound?
Its half-life is 2.5 h.

And the AUC(0-t) [2, 6]?
Its AUC(0-t) is 40000 ng·h/mL.

What about the Cmax [2, 6] of the same compound?
The Cmax was 5190 ng/mL.

What about the half-life [2, 7] of the same compound?
Its half-life is 1.7 h.

What about the AUC(0-t) [2, 7] of the same compound?
Its AUC(0-t) is 63100 ng·h/mL.

And the Cmax [2, 7]?
The Cmax was 8150 ng/mL.

What about the half-life [2, 8] of the same compound?
Its half-life is 2.3 h.

And the AUC(0-t) [2, 8]?
The AUC(0-t) was 85500 ng·h/mL.

What about the Cmax [2, 8] of the same compound?
Its Cmax is 10200 ng/mL.

What about the half-life [2, 9] of the same compound?
Its half-life is 1.4 h.

What about the AUC(0-t) [2, 9] of the same compound?
Its AUC(0-t) is 16400 ng·h/mL.

And the Cmax [2, 9]?
The Cmax was 2030 ng/mL.

What about the half-life [2, 10] of the same compound?
Its half-life is 1.8 h.

And the AUC(0-t) [2, 10]?
The AUC(0-t) was 19000 ng·h/mL.

What about the Cmax [2, 10] of the same compound?
Its Cmax is 2330 ng/mL.

And the half-life [2, 11]?
The half-life was 1.8 h.

And the AUC(0-t) [2, 11]?
The AUC(0-t) was 42600 ng·h/mL.

What about the Cmax [2, 11] of the same compound?
Its Cmax is 4290 ng/mL.

And the half-life [2, 12]?
The half-life was 2 h.

What about the AUC(0-t) [2, 12] of the same compound?
Its AUC(0-t) is 39900 ng·h/mL.

And the Cmax [2, 12]?
The Cmax was 4540 ng/mL.

And the half-life [2, 13]?
Its half-life is 1.8 h.

And the AUC(0-t) [2, 13]?
The AUC(0-t) was 91500 ng·h/mL.

What about the Cmax [2, 13] of the same compound?
The Cmax was 10100 ng/mL.

And the half-life [2, 14]?
Its half-life is 2.4 h.

What about the AUC(0-t) [2, 14] of the same compound?
Its AUC(0-t) is 102000 ng·h/mL.

What about the Cmax [2, 14] of the same compound?
Its Cmax is 12600 ng/mL.
